Here are results for six compounds from patent US5910502A, “Use of levobupivacaine in paediatric surgery” (priority 1997, dated 1999).

Counter-ions that a name gives are not always drawn.

Series [1] deals with tk locus (5-trifluorothymidine resistance) in mouse lymphoma cells. The series is described as follows: Mutation at the tk locus (5-trifluorothymidine resistance) in mouse lymphoma cells, fluctuation protocol, with and without S-9. The method, then:
(§1) More specifically, levobupivacaine HCl was assayed for its ability to induce mutation at the tk locus (5-trifluorothymidine resistance) in mouse lymphoma cells using a fluctuation protocol. The study consisted of a cytotoxicity range-finder followed by two independent experiments, each conducted in the absence and presence of metabolic activation by an Aroclor 1254-induced rat liver post-mitochondrial fraction (S-9). For reference, bupivacaine HCl was tested concurrently in the cytotoxicity range-finder.
For reference, three doses of bupivacaine HCl were tested in the absence of S-9 (250, 500 and 750 μg/ml), and two doses in the presence of S-9 (250, 500 μg/ml). The lowest five doses of levobupivacaine HCl and all reference doses of bupivacaine HCl were selected to determined viability and 5-trifluorothymidine resistance, 2 days after treatment.
In the second experiment, the dose range was modified slightly for both levobupivacaine HCl and bupivacaine HCl.
Negative (solvent) and positive control treatments were included in each mutation experiment in the absence and presence of S-9.

Series [2] deals with mouse lymphoma cells. The experiment in a line: Cytotoxicity range-finder (relative survival), with and without S-9. Type of series: cell-based. As for the experimental part: as §1
(§2) A wide range of concentrations were selected for the cytotoxicity range-finder experiments, separated by two-fold intervals and ranging from 31.25 to 1000 μg/ml for levobupivacaine HCl and from 62.5 to 2000 μg/ml for bupivacaine HCl (limited by solubility in both cases).

Assay in series [3]: as above
In kind it is cell-based, mouse. The settings on record: mouse. The method, then: as §1, §2

In series [4] the test system is heart; central nervous system (CNS). The settings on record: cited from earlier work.
Series [5] relates to heart. The settings on record: in vitro; Vanhoutte et al 1991, Denson et al 1992; cited from earlier work.
Series [6] concerns children having outpatient herniorrhaphy. The experiment in a line: Double-blind randomized placebo-controlled clinical study: IlIH nerve block in children having outpatient herniorrhaphy. In kind it is in vivo, human (children ages 6 mo to 12 y).
Procedure: In a clinical study, the suitability of levobupivacaine in paediatric surgery was evaluated. This was a double-blind randomized, placebo-controlled study, to determine the safety and effectiveness of levobupivacaine for field block in children having outpatient herniorrhaphy. More specifically, otherwise healthy children ages 6 mo to 12 y presenting for outpatient herniorrhaphy were randomized to receive either ilioinguinal/iliohytpogastric (IlIH) nerve block(s) with 0.25 ml/kg 0.5% levobupivacaine per side operated, or no block, at the completion of surgery.
Series [7] has as its system patients requiring hernia repair. The series is described as follows: Further study in patients requiring hernia repair: rescue analgesia. In kind it is in vivo, human. As for the experimental part: In a further study, using levobupivacaine in patients requiring hernia repair, 45% of patients in the 0.5% levobupivacaine group compared with 73.3% of patients in the no block required at least one dose of rescue analgesia (p=0.167). The majority of the children who required rescue (91.4%) required two or fewer doses of rescue analgesia. […] The median patient in the 0.5% levobupivacaine group first requested rescue medication after at least 118 minutes, compared with 31 minutes in the no block group (p=0.041).

Setting [8] is: 0.25 ml/kg 0.5% per side operated, vs no block.

In the case of `O=[N+]([O-])c1cc[n+]([O-])c2ccccc12` [4-nitroquinoline 1-oxide], the “mutation, positive control” value in series [1] (without S-9) was “clear increases in mutation”.
By viability is commonly meant a read-out of living cells in per cent, often relative to untreated cells. As for `CCCCN1CCCC[C@H]1C(=O)Nc1c(C)cccc1C` [levobupivacaine HCl], the “mutagenicity, overall conclusion” value in series [1] is “not mutagenic”. In addition, the “cell survival (in words)” value in series [2] (31.25 to 1000 μg/ml, absence and presence of S-9) is “Cells survived all doses”. In addition, the viability was determined as 150% in series [3] (absence of S-9, 1000 μg/ml) and 9.1% in series [3] (presence of S-9, 1000 μg/ml).
With `CCCCN1CCCCC1C(=O)Nc1c(C)cccc1C` (stereo not drawn) [bupivacaine HCl], the “cytotoxicity (in words)” value in series [2] (bupivacaine HCl (reference), top two doses, 1000 and 2000 μg/ml) is given as “completely toxic”. In addition, the viability turned out to be 100% in series [3] (absence of S-9, 500 μg/ml) and 12.4% in series [3] (presence of S-9, 500 μg/ml).
`CCCCN1CCCCC1C(=O)Nc1c(C)cccc1C` (racemic) [bupivacaine]: in series [1], the “dosage limitation by cytotoxicity, summary” value is listed as “limited by cytotoxicity” and the “genotoxicity, summary” value is listed as “positive for genotoxicity”. Also, the “CNS side-effects (in words)” value in series [4] (at higher doses) is on record as “undesirable central nervous system (CNS) side-effects”. In addition, in series [4] (background), the “cardiotoxicity (in words)” value is “cardiotoxic, having depressant electrophysiological and mechanical effects on the heart”. Further, the “death in patients (in words)” value in series [4] (including women in childbirth and Bier's block) is “produced death in a number of patients”.
Regarding `c1ccc2c(c1)cc1ccc3cccc4ccc2c1c34` [benzo[a]pyrene], in series [1] (with S-9), the “mutation, positive control” value is “clear increases in mutation”.
In the case of `CCCCN1CCCC[C@H]1C(=O)Nc1c(C)cccc1C` [levobupivacaine, (S)-1-butyl-N-(2,6-dimethylphenyl)-2-piperidinecarboxamide], the “genotoxicity, summary” value in series [1] was “completely negative”. The “cardiotoxicity relative to dextrobupivacaine and racemic bupivacaine” value in series [5] is “less cardiotoxic than dextrobupivacaine and racemic bupivacaine”. Besides, the “safety and effectiveness for IlIH block, conclusion” value in series [6] (0.25 ml/kg 0.5% levobupivacaine per side operated) is “safe and effective”. Further, the “adverse events specifically attributable to levobupivacaine” value in series [6] (0.25 ml/kg 0.5% per side operated) is “absence of any adverse events”. For the same compound, in series [6] (setting [8]), the “interval to rescue analgesia” value is “longer interval to rescue analgesia” and the rescue analgesic doses result is “fewer rescue analgesic doses”. For the same compound, in series [6] (at 15, 20, 30 and 60 min, 0.25 ml/kg 0.5% per side operated, vs no block), the CHEOPS entry is on record as “lower CHEOPS”. The “time to first request for rescue medication (in words)” value in series [7] (0.5% levobupivacaine group vs no block group) is listed as “significantly longer”. Moreover, in series [7] (0.5% levobupivacaine group, no block 73.3%, p=0.167), the “patients requiring at least one dose of rescue analgesia” value came out at 45%. Further, the “median time to first request for rescue medication” value in series [7] (0.5% levobupivacaine group, no block 31 minutes, p=0.041) is “at least 118 minutes”.
